Reference: patent USRE31463E, “Radiopharmaceutical chelates and method of external imaging” (priority 1980, dated 1983)
Like-named read-outs stand apart in the source and are kept apart here.

Tests used:
[1] = mouse, in vivo, iv; for injected dose in the blood: 60 min
[2] = Biodistribution in mice after intravenous injection (organ activities by scintillation counter); conditions: i.v., 60 minutes

In the case of “cobalt-57 chelate of N-[N'-(2,6-dimethylphenyl) carbamoylmethyl] iminodiacetic acid [Example 11]”, the “injected dose in the intestines” value ([1]; 30 min) is reported as 12% and the “injected dose in the liver” value ([1]; 30 min) is reported as 28%.

With “gallium-67 chelate of 8-hydroxyquinoline [Example 9]” the “injected dose in the blood” value [2] was 20%, the “injected dose in the intestines” value [2] was 13% and the “injected dose in the liver” value [2] was 25%.

In the case of “gallium-67 chelate of methyliminodiacetic acid [Example 15]”, the “route of elimination / renal clearance” value [1] is reported as “rapid renal clearance”.

In the case of “technetium-99m chelate of 10-carboxydecyliminodiacetic acid [Example 12]”, the blood clearance [1] is reported as “rapid blood clearance”, the “persistent activity in organs” value [1] is reported as “persistent activity noted in the liver and lungs” and the “route of elimination / renal clearance” value [1] is reported as “eliminated through both kidneys and liver”. For the same substance, the “injected dose in the blood” value [1] was “less than 6%”.

With “technetium-99m chelate of N-(o-bromobenzyl) iminodiacetic acid [Example 13]” the blood clearance [1] was “rapid blood clearance”, the “injected dose in the intestines” value ([1]; 30 min) was 30% and the “injected dose in the blood” value [1] was “less than 5%”.

For “technetium-99m chelate of nitrilotriacetic acid [Example 10]”, the “injected dose found in the liver and intestines” value [1] was “less than 5%”, the “route of elimination / renal clearance” value [1] was “rapidly clear through the kidneys to urine” and the eliminated in urine ([1]; 1 h) was 40%.
